This passage reports EC50 results from US10626095B2, “Cyanotriazole compounds” (OTSUKA PHARMACEUTICAL CO., LTD., priority 2013, dated 2020).

The experiment has as its system NaCT-CHO (CHO cells stably expressing human NaCT). As to the kind of experiment: Assay of the citric acid cycle activation ([1,5-14C]-citric acid, diffusion of [14C]-CO2). Particulars: 1 hour incubation at 37° C. with [1,5-14C]-citric acid. The experiment is classed as cell-based. The source says:
Assay of the Citric Acid Cycle Activation
(1) Construction of the Human NaCT Expression Vector pME-NaCT
The human NaCT (also called SLC13A5 or NAC2; GenBank accession No. NM_177550) cDNA was inserted into the EcoRI-NotI site of the mammalian expression vector pME18S (GenBank accession No. AB009864) and purified by Qiagen Plasmid Maxi Kit (Qiagen).
(2) Establishment of NaCT Stably Expressed CHO Cells
The pME-NaCT vector and the pcDNA™3.1 vector containing the neomycin resistance gene (Life Technologies) were co-transfected into CHO-K1 cells (ATCC) by Lipofectaimine 2000 reagent (Life Technologies). The next day the cells were subcultured in Nutrient Mixture F-12 Ham (Sigma-Aldrich) with 10% FBS (Biological Industries), and Geneticin (Life Technologies) was added (final concentration 350 μg/mL) in the following day. CHO cell clones stably expressing NaCT were given by neomycin resistant cell screening and limiting dilution method. Established cell lines (named NaCT-CHO) were also maintained in culture medium (Nutrient Mixture F-12 Ham) with 10% FBS and 350 μg/mL Geneticin. For control cells (named pME-CHO) preparation, the naive pME18S were also transfected instead of pME-NaCT into CHO-K1 cells.
(3) Assay of the Citric Acid Cycle Activation
NaCT-CHO and pME-CHO were plated at 20,000 cells/well into white CulturPlate™-96 (PerkinElmer) two days before the assay. Prior to assay incubation, the cultured plates were washed twice with washing buffer, 10 mM HEPES-Tris(pH7.4) containing 140 mM choline chloride, 2 mM KCl, 1 mM CaCl2, 1 mM MgCl2. The compounds to be tested were dissolved and diluted in DMSO (Wako Pure Chemical industries) to 1,000 times of a final concentration, and further diluted to two times as high as the final concentration in assay buffer, 10 mM HEPES-Tris(pH7.4) containing 140 mM NaCl, 2 mM KCl, 1 mM CaCl2, 1 mM MgCl2. The range of final concentrations was properly determined based on the test compounds activity. Each 25 μL compound solution was added to well and subsequently 25 μL radio-labeled substrate solution containing 0.4 mM (0.4 MBq/mL) [1,5-^14C]-citric acid (PerkinElmer) in the assay buffer was added. After 1 hour incubation at 37° C., the reaction mixture was discarded and washed three times with pre-chilled washing buffer and then 0.1 mL MicroScint 20 (PerkinElmer) was added to well. The plate was sealed with TopSeal-A (PerkinElmer) and the radioactivity was measured using a TopCount (PerkinElmer). Non-specific activity (NS cpm) and total radio activity (Total cpm) were determined by counting of pME-CHO plated wells and NaCT-CHO plated wells without compounds, respectively. Diffusion of [^14C]—CO2 was able to be estimated from residual radioactivity (R cpm) by an equation (Total−R)/(Total−NS)×100(%). The difference of Total and R was disappeared in the presence of 0.1 μM antimycin A. EC50 values were calculated by regression analysis using SAS Statistical Analysis System (SAS institute Japan Ltd. Release 9.1).

Turning to `Cc1nc(-c2cccc(C(F)(F)F)c2)sc1-c1nn[nH]c1C#N` [Example 114, 5-[4-methyl-2-(3-trifluoromethyl-phenyl)-thiazol-5-yl]-3H-[1,2,3]triazole-4-carbonitrile], the response was half-maximal at 450 nM (EC50).
The value for `N#Cc1[nH]nnc1CCc1ccccc1OCc1cc(C(F)(F)F)ccc1C(F)(F)F` [Example 150, 5-{2-[2-(2,5-bis-trifluoromethyl-benzyloxy)-phenyl]-ethyl}-3H-[1,2,3]triazole-4-carbonitrile] was 860 nM; that for `CCc1sc(Oc2ccc(Cl)cc2)nc1-c1nn[nH]c1C#N` [Example 102] was 360 nM.
The value for `N#Cc1[nH]nnc1-c1cccc(/C=C\c2cc(C(F)(F)F)cc(C(F)(F)F)c2)c1` [Example 53, 5-{3-[(Z)-2-(3,5-bis-trifluoromethyl-phenyl)-vinyl]-phenyl}-3H-[1,2,3]triazole-4-carbonitrile] was 480 nM.
Consider `N#Cc1[nH]nnc1-c1coc(-c2ccc(OC(F)(F)F)cc2)n1` [Example 117, 5-[2-(4-trifluoromethoxy-phenyl)-oxazol-4-yl]-3H-[1,2,3]triazole-4-carbonitrile], for which the midpoint of the response, the EC50, lay at 1590 nM.
The same measure for `CCCCCCc1nc(-c2nn[nH]c2C#N)cs1` [Example 87, 5-(2-hexyl-thiazol-4-yl)-3H-[1,2,3]triazole-4-carbonitrile]: 900 nM.
The value for `Cc1sc(Oc2ccc(OC(F)(F)F)cc2)nc1-c1nn[nH]c1C#N` [Example 96, 5-[5-methyl-2-(4-trifluoromethoxy-phenoxy)-thiazol-4-yl]-3H-[1,2,3]triazole-4-carbonitrile] was 670 nM; that for `N#Cc1[nH]nnc1-c1cc(OC2CCC2)cc(-c2ccc(C(F)(F)F)nc2)c1` [Example 19, 5-[3-cyclobutoxy-5-(6-trifluoromethyl-pyridin-3-yl)-phenyl]-3H-[1,2,3]triazole-4-carbonitrile] was 530 nM.
The value for `N#Cc1[nH]nnc1-c1csc(/C=C/c2cccc(C(F)(F)F)c2)n1` [Example 81, 5-{2-[(E)-2-(3-trifluoromethyl-phenyl)-vinyl]-thiazol-4-yl}-3H-[1,2,3]triazole-4-carbonitrile] was 990 nM.
Regarding `N#Cc1[nH]nnc1-c1csc(OCc2ccc(Cl)cc2)n1` [Example 82, 5-[2-(4-chloro-benzyloxy)-thiazol-4-yl]-3H-[1,2,3]triazole-4-carbonitrile], the half-maximal effective concentration (EC50) (as a rule, the concentration needed to bring the measured effect to its halfway point) turned out to be 760 nM.
The same measure for `N#Cc1[nH]nnc1-c1cccc(/C=C/c2cccc(C(F)(F)F)c2)c1Cl` [Example 42, 5-{2-chloro-3-[(E)-2-(3-trifluoromethyl-phenyl)-vinyl]-phenyl}-3H-[1,2,3]triazole-4-carbonitrile]: 590 nM; for `N#Cc1[nH]nnc1-c1cc(Cl)cc(N2CCC(C(F)(F)F)CC2)c1` [Example 24, 5-[3-chloro-5-(4-trifluoromethyl-piperidin-1-yl)-phenyl]-3H-[1,2,3]triazole-4-carbonitrile]: 480 nM; for `N#Cc1[nH]nnc1-c1nc(-c2cccc(Cl)c2)oc1C1CC1` [Example 121, 5-[2-(3-chloro-phenyl)-5-cyclopropyl-oxazol-4-yl]-3H-[1,2,3]triazole-4-carbonitrile]: 990 nM.
The value for `N#Cc1[nH]nnc1-c1ccc(C(F)(F)F)c(/C=C/c2cccc(C(F)(F)F)c2)c1` [Example 46, 5-{4-trifluoromethyl-3-[(E)-2-(3-trifluoromethyl-phenyl)-vinyl]-phenyl}-3H-[1,2,3]triazole-4-carbonitrile] was 980 nM.
The value for `N#Cc1[nH]nnc1-c1cc(Cl)ccc1-c1cccc(C(F)(F)F)c1` [Example 4, 5-(4-chloro-3′-trifluoromethyl-biphenyl-2-yl)-3H-[1,2,3]triazole-4-carbonitrile] was 240 nM; that for `CN(c1ccc(Cl)cc1)c1nc(-c2nn[nH]c2C#N)cs1` [Example 83, 5-{2-[N-(4-chloro-phenyl)-N-methyl-amino]-thiazol-4-yl}-3H-[1,2,3]triazole-4-carbonitrile] was 1080 nM; that for `N#Cc1[nH]nnc1-c1cc(C(F)(F)F)ccc1/C=C/c1ccccc1` [Example 6, 5-[2-((E)-styryl)-5-trifluoromethyl-phenyl]-3H-[1,2,3]triazole-4-carbonitrile] was 400 nM.
In the case of `CN(Cc1cc(C(F)(F)F)cc(C(F)(F)F)c1)c1cccc(-c2nn[nH]c2C#N)c1` [Example 58, 5-{3-[N-(3,5-bis-trifluoromethyl-benzyl)-N-methyl-amino]-phenyl}-3H-[1,2,3]triazole-4-carbonitrile], the EC50 is 720 nM.
The value for `N#Cc1[nH]nnc1-c1cc(-c2ccccc2)c(C(F)(F)F)s1` [Example 128, 5-(4-phenyl-5-trifluoromethyl-thiophen-2-yl)-3H-[1,2,3]triazole-4-carbonitrile] was 560 nM; that for `Cc1sc(-c2cccc(C(F)(F)F)c2)nc1-c1nn[nH]c1C#N` [Example 91, 5-[5-methyl-2-(3-trifluoromethyl-phenyl)-thiazol-4-yl]-3H-[1,2,3]triazole-4-carbonitrile] was 700 nM; that for `Cc1sc(-c2ccc(Cl)cc2)nc1-c1nn[nH]c1C#N` [Example 89, 5-[2-(4-chloro-phenyl)-5-methyl-thiazol-4-yl]-3H-[1,2,3]triazole-4-carbonitrile] was 760 nM.
The value for `N#Cc1[nH]nnc1-c1csc(-c2ccc(OC(F)(F)F)cc2)n1` [Example 80, 5-[2-(4-trifluoromethoxy-phenyl)-thiazol-4-yl]-3H-[1,2,3]triazole-4-carbonitrile] was 870 nM.
The value for `N#Cc1[nH]nnc1-c1ccc2ccn(-c3ccc(F)c(F)c3)c2c1` [Example 145, 5-[1-(3,4-difluoro-phenyl)-1H-indol-6-yl]-3H-[1,2,3]triazole-4-carbonitrile] was 370 nM; that for `N#Cc1[nH]nnc1-c1cc(Cl)cc(-c2csc3ccccc23)c1` [Example 25, 5-(3-(benzo[b]thiophen-3-yl)-5-chloro-phenyl)-3H-[1,2,3]triazole-4-carbonitrile] was 540 nM.
Consider `N#Cc1[nH]nnc1-c1nc(-c2ccc(OC(F)(F)F)cc2)cs1` [Example 74, 5-[4-(4-trifluoromethoxy-phenyl)-thiazol-2-yl]-3H-[1,2,3]triazole-4-carbonitrile], for which the EC50 worked out at 2910 nM.
The value for `N#Cc1[nH]nnc1-c1nc(-c2ccc(Cl)cc2)sc1C1CC1` [Example 105, 5-[2-(4-chloro-phenyl)-5-cyclopropyl-thiazol-4-yl]-3H-[1,2,3]triazole-4-carbonitrile] was 1910 nM; that for `CCc1sc(-c2cccc(C(F)(F)F)c2)nc1-c1nn[nH]c1C#N` [Example 99, 5-[5-ethyl-2-(3-trifluoromethyl-phenyl)-thiazol-4-yl]-3H-[1,2,3]triazole-4-carbonitrile] was 540 nM.
Compound `N#Cc1[nH]nnc1-c1cc(-c2ccc(C(F)(F)F)nc2)cc(C2CC2)c1` [Example 12, 5-[3-cyclopropyl-5-(6-trifluoromethyl-pyridin-3-yl)-phenyl]-3H-[1,2,3]triazole-4-carbonitrile] registered an EC50 of 690 nM.
The value for `N#Cc1[nH]nnc1-c1cccc(/C=C/c2ccc(C(F)(F)F)cn2)c1` [Example 48, 5-{3-[(E)-2-(5-trifluoromethyl-pyridin-2-yl)-vinyl]-phenyl}-3H-[1,2,3]triazole-4-carbonitrile] was 430 nM.
